According to patent publication US8796219B2, “Target-activated cell/tissue-penetrating peptide for delivery of impermeable compounds and use thereof” (Nano Intelligent Biomedical Engineering Corporation Co. Ltd, priority 2009, dated 2014):
Where no end group is shown, it is not given here.

Columns and labels:
normal cell line (ATCC) = assay: Cell-penetrating ability in normal cell line (FACS and confocal laser scanning microscopy of FITC fluorescence); assay type: cell-based; details: FITC label
Procedure: (§1) In order to examine the cell-penetrating ability of the target-activated cell/tissue-penetrating peptide prepared in Example 1, the C-terminal region of the prepared peptide was labeled with the fluorescence marker FITC, and the fluorescence-labeled peptide was inoculated into each of a normal cell line (ATCC) and a tumor cell line (CT-26, KCLB (Korea cell line bank) 80009).
(§2) 1 hour after the inoculation, the fluorescence intensities of the cell lines were measured using FACS, and the results of the measurement are shown in FIG. 2. […] In FIG. 2, “(a)” indicates the fluorescence intensity of the normal cell line, and “(b)” indicates the fluorescence intensity of the tumor cell line.
(§3) Also, whether the peptide penetrated into the cells was observed by a confocal laser scanning microscope. […] In FIG. 3, “(a)” indicates the cell penetration of the peptide in the tumor cell line group, and “(b)” indicates the cell penetration of the peptide in the normal cell line group.
(§4) The target-activated cell/tissue-penetrating peptide-anticancer protein conjugate prepared in Example 2 above was inoculated into each of a normal cell line (ATCC) and a tumor cell line (CT-26, KCLB (Korea cell line bank) 80009). 1 hour after the inoculation, the penetration of the peptide-gelonin conjugate into the cells was observed by a confocal laser scanning microscope (FIG. 4).

tumor cell line (CT-26) = assay: Cell-penetrating ability in tumor cell line (FACS and confocal laser scanning microscopy of FITC fluorescence); assay type: cell-based, mouse
Procedure: as §1, §2, §3, §4

Row | Substance | fluorescence intensity of the normal cells (FACS) (normal cell line (ATCC)) | fluorescence intensity of the tumor cells (FACS) (tumor cell line (CT-26); CT-26, 1 hour after inoculation, FITC label) | penetration into the cells observed by confocal laser scanning microscope, tumor cell line (tumor cell line (CT-26); CT-26, FITC label, nuclei stained with Hoechst 33342) | penetration into the cells observed by confocal laser scanning microscope, normal cell line (normal cell line (ATCC); nuclei stained with Hoechst 33342)
1 | NH2-EEEEEEEPLGLAG-VSRRRRRRGGRRRR-C-COONH2 (H-EEEEEEEPLGLAGVSRRRRRRGGRRRRC-NH2) [masking domain (EEEEEEE), MMP-cleavable spacer (PLGLAG) and LMWP as protein transduction domain] | the same as that before application of the penetrating peptide | – | – | –
2 | fluorescence-labeled peptide: peptide of Example 1 with the C-terminal region labeled with the fluorescence marker FITC (H-EEEEEEEPLGLAGVSRRRRRRGGRRRRC; also: FITC label on C-terminal region) | – | increase | observed | not observed
